What was measured:
Tyrosinase = molecular target: T1, Tyrosinase (Homo sapiens, UniProt P14679); assay: Inhibition of tyrosinase (unknown origin) using L-dihydroxyphenylalanine as substrate preincubated for 30 mins followed by substrate addition measured for 7 mins by spectrophotometric analysis
T1 sequence (P14679 whole entry): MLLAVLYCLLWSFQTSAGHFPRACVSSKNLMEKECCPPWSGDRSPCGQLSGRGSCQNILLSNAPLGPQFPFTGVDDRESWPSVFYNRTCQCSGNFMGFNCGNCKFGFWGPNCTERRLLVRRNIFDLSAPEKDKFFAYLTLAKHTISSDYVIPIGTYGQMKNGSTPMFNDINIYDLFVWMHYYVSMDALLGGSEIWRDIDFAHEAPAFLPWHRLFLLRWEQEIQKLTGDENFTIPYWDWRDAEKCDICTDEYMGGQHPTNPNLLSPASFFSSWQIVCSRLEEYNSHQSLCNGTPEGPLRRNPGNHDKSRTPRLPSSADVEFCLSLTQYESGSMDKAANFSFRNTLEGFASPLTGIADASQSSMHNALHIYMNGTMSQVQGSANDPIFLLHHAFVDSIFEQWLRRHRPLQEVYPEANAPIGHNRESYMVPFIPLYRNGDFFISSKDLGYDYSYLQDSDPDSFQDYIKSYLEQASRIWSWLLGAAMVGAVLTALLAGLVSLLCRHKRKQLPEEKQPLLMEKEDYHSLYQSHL

[1] = molecular target: T2, Tyrosinase (Homo sapiens) (UniProt P14679); assay: Potency index, ratio of kojic acid IC50 to compound IC50 for tyrosinase (unknown origin)
T2 sequence (whole entry): T1 sequence (P14679 whole entry)

Row | IC50 (Tyrosinase) [µM] | Ratio IC50 [1] | SMILES
1 | 45.3 |  | COc1c(-c2oc3cc(O)cc(O)c3c(=O)c2CC=C(C)C)cc(O)c(O)c1CC=C(C)C
2 | 0.023 | 1900 | O=c1cc(-c2ccc(O)cc2O)oc2cc(O)cc(O)c12 [NORARTOCARPETIN]
